Patent US8709740B2, “Control of protein activity using a conducting polymer” (The United States of America, as represented by the …, priority 2005, dated 2014)

Assays:
kinesin = details: comparison value, source not given; read-out: inhibition constant Ki (other inhibitors); cited from earlier work
[1] = target: T1, Drosophila sp. kinesin K401-BCCP-His6 (K401-biotin carboxyl carrier protein-His6) (Drosophila melanogaster, UniProt P17210); test: Michaelis-Menten kinetics of kinesin on poly(OH-EDOT) surface from microtubule gliding speeds at varied ATP concentration; format: biochemical
T1 construct: motor domain, neck linker and part of the coiled coil) of kinesin-1 heavy chain fused to biotin carboxyl carrier protein (BCCP, from E. coli in the known construct) and a His6 tag; microtubules and ATP present
From the text: The protein ensemble (streptavidin, BSA, Drosophila kinesin K401-biotin carboxyl carrier protein (BCCP)-His6 and MTs) was deposited onto the conducting polymer surface (initially doped) using standard flow or droplet deposition methods. Flow cells were assembled using double-sided tape as a spacer creating a channel of approximate dimensions 5 mm×10 mm×0.04 mm. For the non-electrochemical assays, the poly(OH-EDOT)/PET substrate was placed on a glass slide with the conducting polymer layer down. The proteins were introduced using the standard capillary-flow technique. The buffer for all experiments was BRB80 (80 mM Pipes, 2 mM MgCl2, 1 mM EGTA, pH 6.95 with KOH). The flow cells were sequentially filled with a streptavidin solution (Streptomyces avidinii, Sigma-Aldrich, 1.0 mg/mL in BRB80, 10 min deposition time), BSA solution (Sigma-Aldrich, 1.0 mg/mL in BRB80, 10 min deposition time), standard kinesin solution (40 μg/mL kinesin K401-BCCP-His6 with 1 mM ATP in BRB80, 10 min deposition time), and finally a motility buffer with rhodamine-labeled microtubules (1-10 μm in length), containing 1 mM ATP and stabilized with 10 μM Taxol with oxygen scavenging additives (20 mM D-glucose, 20 μg/mL glucose oxidase, 8 μg/mL catalase, 0.2% 2-mercaptoethanol). Flow cells were sealed with immersion oil to prevent evaporation. The assays were performed at room temperature (21° C.).
It has recently been well established that as kinesin hydrolyzes a single ATP molecule, it induces an eight-nanometer movement of a microtubule. Therefore enzyme activity can be indirectly assayed by simply determining the average speed of a large population of microtubules. This was done using fluorescently-labeled microtubules, and their gliding speeds were then carefully measured using confocal microscopy. Microtubules were visualized on the conducting polymer using an Olympus Opelco BX51 fluorescence microscope and their speeds quantified using Metamorph image analysis software (Universal Imaging, Downingtown, Pa.). This assay method was then combined with a transparent electrochemical cell containing a poly(OH-EDOT) support. The poly(OH-EDOT) was ˜80% transparent in the visible range, allowing the microtubules to be easily seen and their speeds measured. […] The surface was then electrochemically doped by applying a bias of […] for 1 minute. The average microtubule speed was measured and found to be 0.40 μm/sec. The resulting ratio in speed differences (dedoped vs. doped surfaces) is 1.55, a striking exact correlation with the ATP hydrolysis ratios on the two surfaces. The surface was then cycled between the two states once more to give an overall cycling history of −1.0 V, +1.0 V, −1.0 V, +1.0 V with corresponding polymer states dedoped, doped, dedoped, doped (FIG. 3). For the second doping cycle the microtubule speeds were 0.63 (dedoped) and 0.40 (doped), giving a speed difference ratio of […].
At this point it was clear that the polymer surface was exerting a direct, reversible effect on the kinesin protein itself. The nature of this influence was examined by treating the charged species in the doped polymer form (the radical cation, or polaron) as an inhibitor, and quantified the enzyme kinetics in terms of Michaelis-Menten parameters. First, the surface concentration of the polarons was calculated using the established value of one polaron per four polymer repeat units for fully doped thiophene-type polymers. […] If one then encloses a kinesin molecule in a cube 30 nm per side and considers the polarons on the 30 nm×30 nm surface region to be distributed in the cube volume, an apparent local polaron concentration ([Iapp]) of 3.89 mM is obtained.
The Michaelis-Menten analysis assumes a kinetic model of the type shown in FIG. 5 (E=enzyme, ES=enzyme-substrate complex, P=product, kcat=catalytic turnover rate constant, Dstep=8 nm, Km=Michaelis constant). The kinetics of most enzymes, including kinesin, is accurately described with this model. […]

[2] = substrate ATP, doped vs dedoped surface

T1 sequence (P17210 1-401): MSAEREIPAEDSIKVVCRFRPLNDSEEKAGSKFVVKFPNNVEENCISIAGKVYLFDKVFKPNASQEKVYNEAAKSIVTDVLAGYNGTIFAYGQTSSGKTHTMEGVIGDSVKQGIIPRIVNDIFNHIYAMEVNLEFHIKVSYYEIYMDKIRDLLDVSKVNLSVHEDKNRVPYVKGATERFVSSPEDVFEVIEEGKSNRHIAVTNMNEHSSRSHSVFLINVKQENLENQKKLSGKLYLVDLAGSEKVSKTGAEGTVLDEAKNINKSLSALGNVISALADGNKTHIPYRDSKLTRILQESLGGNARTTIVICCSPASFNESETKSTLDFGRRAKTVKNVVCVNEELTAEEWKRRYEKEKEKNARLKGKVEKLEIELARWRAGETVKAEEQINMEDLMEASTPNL

| Compound | Ki (kinesin) [mM] | Speedmax dedoped ([1]; dedoped poly(OH-EDOT) surface, microtubule speed at infinite ATP concentration, 21° C., BRB80 pH 6.95) | Speedmax doped ([1]; doped poly(OH-EDOT) surface, microtubule speed at infinite ATP concentration, 21° C., BRB80 pH 6.95) | kcat dedoped ([1]; substrate ATP, dedoped poly(OH-EDOT) surface, 8 nm step per ATP hydrolyzed) | kcat doped ([1]; substrate ATP, doped poly(OH-EDOT) surface, 8 nm step per ATP hydrolyzed) | Km app doped lower than Km dedoped [1, 2] | kcat doped lower than kcat dedoped [1, 2] |
| --- | --- | --- | --- | --- | --- | --- | --- |
| Nc1ncnc2c1ncn2[C@@H]1O[C@H](COP(=O)(O)OP(=O)(O)O)[C@@H](O)[C@H]1O [ADP, adenosine diphosphate] | 0.048 |  |  |  |  |  |  |
| Nc1ncnc2c1ncn2[C@@H]1O[C@H](COP(=O)(O)OP(=O)(O)OP(=O)(O)O)[C@@H](O)[C@H]1O [ATP, adenosine triphosphate] |  | 0.943 μm/s ± 0.05 | 0.600 μm/s ± 0.03 | 118 sec^−1 ± 6 | 75.0 sec^−1 ± 3 | ca. 35% | ca. 36% |
| O=P(O)(O)O [PO4^2−] | 9.3 |  |  |  |  |  |  |
